Experimental data: US12514251B2, “Fused heterocyclic compounds and their use as pest control agents” (priority 2020, dated 2026)

Experiments:
Format in all cases: in vivo
Plutella xylostella = test: Plutella xylostella, leaf dip method; conditions: foliar, cabbage leaf dip, second instar larvae, 72 h after release, dead + moribund vs untreated control, read-out: percent mortality
Protocol: The leaf dip method was used for testing, wherein the required quantity of the compound was weighed and dissolved in a tube containing solvent solution. The tube was put on a vortex at 2000 rpm for 90 min for proper mixing, then diluted with 0.01% Triton-X solution to get the desired test concentration. Cabbage leaves were dipped in the compound solution for 10 seconds, shade dried for 20 min and then transferred into the cells of bioassay trays. A single second instar larva was released into each cell and the tray was covered with a lid. The bio-assay trays were then kept under laboratory conditions at a temperature of 25° C. and a relative humidity of 70%. Observations on dead, moribund and alive larvae were recorded 72 h after the release. Percent mortality was calculated by combining dead and moribund larvae and comparing the result to the one of the untreated control.

Spodoptera litura = test: Spodoptera litura, diet incorporation method; conditions: third instar larvae, 96 h after release, dead + moribund vs untreated control, read-out: percent mortality
Protocol: (§1) The diet incorporation method was used, in which the required quantity of the test compound was weighed and dissolved in a tube containing solvent solution. The tube was put on a vortex at 2000 rpm for 90 min for proper mixing. Semi-synthetic diet was incorporated into this solution when the temperature was approximately 50° C. in the bioassay containers. Compound and diet were stirred thoroughly for proper mixing and allowed to cool for 30 min. The solidified diet was cut into equal pieces, and then each piece was transferred into one cell of a bio-assay tray. A single starved third instar larva was released into each of the cells of the bioassay trays and the tray was covered with the lid. The bio-assay trays were then kept under laboratory conditions at a temperature of 25° C. and a relative humidity of 70%. Observations on dead, moribund and alive larvae were recorded 96 h after the release of larvae. Percent mortality was calculated by combining dead and moribund larvae and comparing the result to the one of the untreated control.

Helicoverpa armigera = test: Helicoverpa armigera, diet incorporation method; conditions: third instar larvae, 96 h after release, dead + moribund vs untreated control, read-out: percent mortality
Protocol: as §1, with “covered with a lid. The” for “covered with the lid. The”, “release of the larvae. Percent” for “release of larvae. Percent”

Row | SMILES | mortality at 300 ppm (Plutella xylostella) | mortality at 300 ppm (Spodoptera litura) | mortality at 300 ppm (Helicoverpa armigera)
1 | CCS(=O)(=O)c1cc(-c2ccn3nc(C(F)(F)F)cc3n2)cnc1-n1ccc(C(F)(F)F)n1 [Compound 37, 5-(5-(ethylsulfonyl)-6-(3-(trifluoromethyl)-1H-pyrazol-1-yl)pyridin-3-yl)-2-(trifluoromethyl)pyrazolo[1,5-a]pyrimidine] | ≥ 70% | ≥ 70% | 
2 | CCS(=O)(=O)c1ccc(-n2ncn(-c3cc(Cl)cc(Cl)c3)c2=O)nc1-c1ccn2nc(C(F)(F)F)cc2n1 [Compound 8, 4-(3,5-dichlorophenyl)-2-(5-(ethylsulfonyl)-6-(2-(trifluoromethyl)pyrazolo[1,5-a]pyrimidin-5-yl)pyridin-2-yl)-2,4-dihydro-3H-1,2,4-triazol-3-one] | ≥ 70% |  | ≥ 70%
3 | CCS(=O)(=O)c1cc(-c2cc(F)cc(F)c2)cnc1-c1ccn2nc(C(F)(F)F)cc2n1 [Compound 125, 5-(5-(3,5-difluorophenyl)-3-(ethylsulfonyl)pyridin-2-yl)-2-(trifluoromethyl)pyrazolo[1,5-a]pyrimidine] | ≥ 70% | ≥ 70% | 
4 | CCS(=O)(=O)c1cc(OC(F)F)cnc1-c1ccn2nc(C(F)(F)F)cc2n1 [Compound 229, 5-(5-(difluoromethoxy)-3-(ethylsulfonyl)pyridin-2-yl)-2-(trifluoromethyl)pyrazolo[1,5-a]pyrimidine] | ≥ 70% |  | ≥ 70%
5 | CCS(=O)(=O)c1cc(C=CC2CC2)cnc1-c1ccn2nc(C(F)(F)F)cc2n1 [Compound 205, 5-(5-(2-cyclopropylvinyl)-3-(ethylsulfonyl)pyridin-2-yl)-2-(trifluoromethyl)pyrazolo[1,5-a]pyrimidine] | ≥ 70% | ≥ 70% | 
6 | CCS(=O)(=O)c1cc(-c2ccn3nc(C(F)(F)F)cc3n2)cnc1-n1nc2ccc(C(F)(F)F)cn2c1=O [Compound 75, 2-(3-(ethylsulfonyl)-5-(2-(trifluoromethyl)pyrazolo[1,5-a]pyrimidin-5-yl)pyridin-2-yl)-6-(trifluoromethyl)-[1,2,4]triazolo[4,3-a]pyridin-3(2H)-one] | ≥ 70% |  | ≥ 70%
7 | CCS(=O)(=O)c1ccc(-n2ncn(-c3ccc(Cl)cc3)c2=O)nc1-c1ccn2nc(C(F)(F)F)cc2n1 [Compound 7, 4-(4-chlorophenyl)-2-(5-(ethylsulfonyl)-6-(2-(trifluoromethyl)pyrazolo[1,5-a]pyrimidin-5-yl)pyridin-2-yl)-2,4-dihydro-3H-1,2,4-triazol-3-one] | ≥ 70% |  | ≥ 70%
8 | CCS(=O)(=O)c1cc(-n2cc(F)cn2)cnc1-c1ccn2nc(C(F)(F)F)cc2n1 [Compound 70, 5-(3-(ethylsulfonyl)-5-(4-fluoro-1H-pyrazol-1-yl)pyridin-2-yl)-2-(trifluoromethyl)pyrazolo[1,5-a]pyrimidine] | ≥ 70% |  | ≥ 70%
9 | CCS(=O)(=O)c1ccc(-n2ccc(C(F)(F)F)n2)nc1-c1ccn2nc(C(F)(F)F)cc2n1 [Compound 34, 5-(3-(ethylsulfonyl)-6-(3-(trifluoromethyl)-1H-pyrazol-1-yl)pyridin-2-yl)-2-(trifluoromethyl)pyrazolo[1,5-a]pyrimidine] | ≥ 70% |  | ≥ 70%
10 | CCS(=O)(=O)c1ccc(C2CC2)nc1-c1ccn2nc(C(F)(F)F)nc2n1 [Compound 180, 5-(6-cyclopropyl-3-(ethylsulfonyl)pyridin-2-yl)-2-(trifluoromethyl)-[1,2,4]triazolo[1,5-a]pyrimidine] | ≥ 70% |  | 
11 | CCS(=O)(=O)c1cc(NC)cnc1-c1ccn2nc(C(F)(F)F)cc2n1 [Compound 218, 5-(ethylsulfonyl)-N-methyl-6-(2-(trifluoromethyl)pyrazolo[1,5-a]pyrimidin-5-yl)pyridin-3-amine] | ≥ 70% |  | 
12 | CCS(=O)(=O)c1ccc(-n2cncn2)nc1-c1cnc2cc(C(F)(F)F)nn2c1 [Compound 54, 6-(3-(ethylsulfonyl)-6-(1H-1,2,4-triazol-1-yl)pyridin-2-yl)-2-(trifluoromethyl)pyrazolo[1,5-a]pyrimidine] | ≥ 70% |  | 
13 | CCS(=O)(=O)c1ccc(-c2cccc(C#N)c2)nc1-c1ccn2nc(C(F)(F)F)cc2n1 [Compound 23, 3-(5-(ethylsulfonyl)-6-(2-(trifluoromethyl)pyrazolo[1,5-a]pyrimidin-5-yl)pyridin-2-yl)benzonitrile] | ≥ 70% |  | 
14 | CCS(=O)(=O)c1cc(-c2nccs2)cnc1-c1ccn2nc(C(F)(F)F)nc2n1 [Compound 132, 2-(5-(ethylsulfonyl)-6-(2-(trifluoromethyl)-[1,2,4]triazolo[1,5-a]pyrimidin-5-yl)pyridin-3-yl)thiazole] | ≥ 70% |  | 
15 | CCSc1cc(-c2ccc(OC(F)(F)C(F)F)cc2)cnc1-c1ccn2nc(C(F)(F)F)cc2n1 [Compound 191, 5-(3-(ethylthio)-5-(4-(1,1,2,2-tetrafluoroethoxy)phenyl)pyridin-2-yl)-2-(trifluoromethyl)pyrazolo[1,5-a]pyrimidine] | ≥ 70% |  | 
16 | C=Cc1cnc(-c2ccn3nc(C(F)(F)F)cc3n2)c(S(=O)(=O)CC)c1 [Compound 212, 5-(3-(ethylsulfonyl)-5-vinylpyridin-2-yl)-2-(trifluoromethyl)pyrazolo[1,5-a]pyrimidine] | ≥ 70% |  | 
17 | CCS(=O)(=O)c1cc(C2CCC2)cnc1-c1ccn2nc(C(F)(F)F)cc2n1 [Compound 213, 5-(5-cyclobutyl-3-(ethylsulfonyl)pyridin-2-yl)-2-(trifluoromethyl)pyrazolo[1,5-a]pyrimidine] | ≥ 70% |  | 
18 | CCS(=O)(=O)c1cc(-n2cnc(Cl)n2)cnc1-c1ccn2nc(C(F)(F)F)nc2n1 [Compound 148, 5-(5-(3-chloro-1H-1,2,4-triazol-1-yl)-3-(ethylsulfonyl)pyridin-2-yl)-2-(trifluoromethyl)-[1,2,4]triazolo[1,5-a]pyrimidine] | ≥ 70% |  | 
19 | CCSc1ccc(C)nc1-c1ccn2nc(C(F)(F)F)cc2n1 [Compound 181, 5-(3-(ethylthio)-6-methylpyridin-2-yl)-2-(trifluoromethyl)pyrazolo[1,5-a]pyrimidine] | ≥ 70% |  | 
20 | CCc1cnc(-c2ccn3nc(C(F)(F)F)cc3n2)c(S(=O)(=O)CC)c1 [Compound 211, 5-(5-ethyl-3-(ethylsulfonyl)pyridin-2-yl)-2-(trifluoromethyl)pyrazolo[1,5-a]pyrimidine] | ≥ 70% |  | 
21 | CCS(=O)(=O)c1cc(-c2cc(C(F)(F)F)nn2C)cnc1-c1ccn2nc(C(F)(F)F)cc2n1 [Compound 78, 5-(3-(ethylsulfonyl)-5-(1-methyl-3-(trifluoromethyl)-1H-pyrazol-5-yl)pyridin-2-yl)-2-(trifluoromethyl)pyrazolo[1,5-a]pyrimidine] | ≥ 70% |  | 
22 | CCS(=O)(=O)c1cc(-c2cc(F)cc(F)c2)cnc1-c1ccn2nc(C(F)(F)F)nc2n1 [Compound 103, 5-(5-(3,5-difluorophenyl)-3-(ethylsulfonyl)pyridin-2-yl)-2-(trifluoromethyl)-[1,2,4]triazolo[1,5-a]pyrimidine] | ≥ 70% |  | 
23 | CCS(=O)(=O)c1cc(-c2cc(Cl)cc(Cl)c2)cnc1-c1ccn2nc(C(F)(F)F)nc2n1 [Compound 102, 5-(5-(3,5-dichlorophenyl)-3-(ethylsulfonyl)pyridin-2-yl)-2-(trifluoromethyl)-[1,2,4]triazolo[1,5-a]pyrimidine] | ≥ 70% |  | 
24 | CCS(=O)(=O)c1cc(-c2cc(F)cc(F)c2)cnc1-c1ncc2nc(C(F)(F)F)n(C)c2n1 [Compound 122, 2-(5-(3,5-difluorophenyl)-3-(ethylsulfonyl)pyridin-2-yl)-9-methyl-8-(trifluoromethyl)-9H-purine] | ≥ 70% |  | 
25 | CCS(=O)(=O)c1cc(-c2ccc(C(F)(F)F)cc2)cnc1-c1ncc2nc(C(F)(F)F)n(C)c2n1 [Compound 129, 2-(3-(ethylsulfonyl)-5-(4-(trifluoromethyl)phenyl)pyridin-2-yl)-9-methyl-8-(trifluoromethyl)-9H-purine] | ≥ 70% |  | 
26 | CCOc1ccc(S(=O)(=O)CC)c(-c2ccn3nc(C(F)(F)F)cc3n2)n1 [Compound 227, 5-(6-ethoxy-3-(ethylsulfonyl)pyridin-2-yl)-2-(trifluoromethyl)pyrazolo[1,5-a]pyrimidine] | ≥ 70% |  | 
27 | CCS(=O)(=O)c1cc(-n2cc(Br)cn2)cnc1-c1ccn2nc(C(F)(F)F)cc2n1 [Compound 88, 5-(5-(4-bromo-1H-pyrazol-1-yl)-3-(ethylsulfonyl)pyridin-2-yl)-2-(trifluoromethyl)pyrazolo[1,5-a]pyrimidine] | ≥ 70% |  | 
